Experimental data: US10336761B2, “TGFβ receptor antagonist” (BRISTOL-MYERS SQUIBB COMPANY, priority 2015, dated 2019)

molecular target: HIS-TGFβR1 T204D (Homo sapiens (Human), UniProt P36897, T204D); test: HTRF probe-displacement assay, HIS-TGFβR1 T204D; format: binding; details: 1 hour at room temperature
Sequence (P36897 34-503 T204D): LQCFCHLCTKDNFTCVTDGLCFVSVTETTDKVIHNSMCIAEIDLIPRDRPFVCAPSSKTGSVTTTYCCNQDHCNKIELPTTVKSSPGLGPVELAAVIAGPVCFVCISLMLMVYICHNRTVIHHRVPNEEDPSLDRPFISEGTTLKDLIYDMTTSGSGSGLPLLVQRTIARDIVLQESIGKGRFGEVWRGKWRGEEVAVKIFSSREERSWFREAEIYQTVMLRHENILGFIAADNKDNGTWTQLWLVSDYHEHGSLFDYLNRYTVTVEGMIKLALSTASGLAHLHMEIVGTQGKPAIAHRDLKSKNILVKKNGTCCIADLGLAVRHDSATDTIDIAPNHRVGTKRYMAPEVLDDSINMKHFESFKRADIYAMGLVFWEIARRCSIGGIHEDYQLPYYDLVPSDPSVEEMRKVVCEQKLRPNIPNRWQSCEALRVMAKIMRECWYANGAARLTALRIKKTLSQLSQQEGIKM

CN1CCC(N(C)Cc2ccn3nc(-c4ccccn4)nc(Nc4ccncc4F)c23)CC1 [Example 279, 3-fluoro-N-(5-{[methyl(1-methylpiperidin-4-yl)amino]methyl}-2-(pyridin-2-yl)pyrrolo[2,1-f][1,2,4]triazin-4-yl)pyridin-4-amine] and Fc1cnccc1Nc1nc(-c2ccccn2)nn2ccc(CNC3CCNCC3)c12 [Example 307, 3-fluoro-N-(5-{[(piperidin-4-yl)amino]methyl}-2-(pyridin-2-yl)pyrrolo[2,1-f][1,2,4]triazin-4-yl)pyridin-4-amine] are within 1.5-fold of each other in IC50: 12 nM for the first, 9.1 nM for the second.

Compared with Cc1cccc(-c2nc(Nc3ccncc3Cl)c3cccn3n2)n1 [Example 59, 3-chloro-N-[2-(6-methylpyridin-2-yl)pyrrolo[2,1-f][1,2,4]triazin-4-yl]pyridin-4-amine], COc1cccc(-c2nc(Nc3ccncc3CO)c3cccn3n2)n1 [Example 206, (4-{[2-(6-methoxypyridin-2-yl)pyrrolo[2,1-f][1,2,4]triazin-4-yl]amino}pyridin-3-yl)methanol] is 5.7-fold higher in IC50: 1.6 nM for the first, 9.2 nM for the second. The first is the more potent here.

Compared with FC(F)(F)c1cccc(-c2nc(Nc3ccnc(Cl)c3)c3cccn3n2)n1 [Example 82, 2-chloro-N-{2-[6-(trifluoromethyl)pyridin-2-yl]pyrrolo[2,1-f][1,2,4]triazin-4-yl}pyridin-4-amine], NC(=O)c1cc(Nc2nc(-c3cccc(C(F)(F)F)n3)nn3cccc23)ccn1 [Example 315, 4-({2-[6-(trifluoromethyl)pyridin-2-yl]pyrrolo[2,1-f][1,2,4]triazin-4-yl}amino)pyridine-2-carboxamide] is 3-fold lower in IC50: 2700 nM for the first, 890 nM for the second. The second is the more potent here.

Going from O=C(CN1CCOCC1)Nc1cc(Nc2nc(-c3cccc(C(F)(F)F)n3)nn3cccc23)ccn1 [Example 331, 2-(morpholin-4-yl)-N-[4-({2-[6-(trifluoromethyl)pyridin-2-yl]pyrrolo[2,1-f][1,2,4]triazin-4-yl}amino)pyridin-2-yl]acetamide] to O=C(Nc1cc(Nc2nc(-c3cccc(C(F)(F)F)n3)nn3cccc23)ccn1)C1CC1 [Example 335, N-[4-({2-[6-(trifluoromethyl)pyridin-2-yl]pyrrolo[2,1-f][1,2,4]triazin-4-yl}amino)pyridin-2-yl]cyclopropanecarboxamide], the IC50 falls from 2.6 nM to 0.37 nM (7-fold).

Going from COc1cccc(-c2nc(Nc3ccncc3F)c3cc(NC(=O)CNS(C)(=O)=O)cn3n2)n1 [Example 110, N-{4-[(3-fluoropyridin-4-yl)amino]-2-(6-methoxypyridin-2-yl)pyrrolo[2,1-f][1,2,4]triazin-6-yl}-2-methanesulfonamidoacetamide] to COc1cccc(-c2nc(Nc3ccncc3F)c3cc(NS(=O)(=O)C4CC4)cn3n2)n1 [Example 107, N-{4-[(3-fluoropyridin-4-yl)amino]-2-(6-methoxypyridin-2-yl)pyrrolo[2,1-f][1,2,4]triazin-6-yl}cyclopropanesulfonamide], the IC50 falls from 130 nM to 81 nM (1.6-fold).

Going from COc1cccc(-c2nc(Nc3ccnc(NC(C)=O)c3)c3cccn3n2)n1 [Example 97, N-(4-{[2-(6-methoxypyridin-2-yl)pyrrolo[2,1-f][1,2,4]triazin-4-yl]amino}pyridin-2-yl)acetamide] to COCCC(=O)Nc1cc(Nc2nc(-c3cccc(C(F)(F)F)n3)nn3cccc23)ccn1 [Example 343, 3-methoxy-N-[4-({2-[6-(trifluoromethyl)pyridin-2-yl]pyrrolo[2,1-f][1,2,4]triazin-4-yl}amino)pyridin-2-yl]propanamide], the IC50 falls from 2.9 nM to 1.8 nM (1.6-fold).

CC(=O)Nc1cc(Nc2nc(-c3ccccn3)nn3ccc(CN4CCC(F)(F)CC4)c23)ccn1 [Example 24, N-[4-({5-[(4,4-difluoropiperidin-1-yl)methyl]-2-(pyridin-2-yl)pyrrolo[2,1-f][1,2,4]triazin-4-yl}amino)pyridin-2-yl]acetamide] and Oc1cccc(N2CCN(Cc3ccn4nc(-c5ccccn5)nc(Nc5ccncc5F)c34)CC2)c1 [Example 275, 3-[4-({4-[(3-fluoropyridin-4-yl)amino]-2-(pyridin-2-yl)pyrrolo[2,1-f][1,2,4]triazin-5-yl}methyl)piperazin-1-yl]phenol] are within 1.5-fold of each other in IC50: 0.4 nM for the first, 0.47 nM for the second.

Compared with Fc1ccc(-c2nc(Nc3cc(Cl)ncc3F)c3cccn3n2)nc1 [Example 317, 2-chloro-5-fluoro-N-[2-(5-fluoropyridin-2-yl)pyrrolo[2,1-f][1,2,4]triazin-4-yl]pyridin-4-amine], Cc1csc(-c2nc(Nc3ccncc3F)c3cccn3n2)n1 [Example 12, 3-fluoro-N-[2-(4-methyl-1,3-thiazol-2-yl)pyrrolo[2,1-f][1,2,4]triazin-4-yl]pyridin-4-amine] is 3800-fold lower in IC50: 3000 nM for the first, 0.8 nM for the second. The second is the more potent here.

Going from COc1cccc(-c2nc(Nc3ccncc3F)c3cc(N)cn3n2)n1 [Example 103, 4-N-(3-fluoropyridin-4-yl)-2-(6-methoxypyridin-2-yl)pyrrolo[2,1-f][1,2,4]triazine-4,6-diamine] to C=Cc1cc2c(Nc3ccncc3F)nc(-c3cccc(OC)n3)nn2c1 [Example 210, N-[6-ethenyl-2-(6-methoxypyridin-2-yl)pyrrolo[2,1-f][1,2,4]triazin-4-yl]-3-fluoropyridin-4-amine], the IC50 falls from 140 nM to 30 nM (4.7-fold). The second is the more potent here.

Going from O=C(NCCC(F)(F)F)c1cnccc1Nc1nc(-c2cccc(C(F)F)n2)nn2cccc12 [Example 202, 4-({2-[6-(difluoromethyl)pyridin-2-yl]pyrrolo[2,1-f][1,2,4]triazin-4-yl}amino)-N-(3,3,3-trifluoropropyl)pyridine-3-carboxamide] to O=C(NC1CCOC1)c1cnccc1Nc1nc(-c2cccc(C(F)F)n2)nn2cccc12 (centres unmarked) [Example 177, 4-({2-[6-(difluoromethyl)pyridin-2-yl]pyrrolo[2,1-f][1,2,4]triazin-4-yl}amino)-N-(oxolan-3-yl)pyridine-3-carboxamide], the IC50 falls from 140 nM to 21 nM (6.7-fold). The second is the more potent here.

First: Cc1cccc(-c2nc(Nc3ccncc3C(=O)NCCN3CCCC3)c3cccn3n2)n1 [Example 152, 4-{[2-(6-methylpyridin-2-yl)pyrrolo[2,1-f][1,2,4]triazin-4-yl]amino}-N-[2-(pyrrolidin-1-yl)ethyl]pyridine-3-carboxamide]
Second: O=C(NCCCN1CCCC1)c1cnccc1Nc1nc(-c2ccccn2)nn2cccc12 [Example 150]
The IC50 of the first is 3-fold lower: 5.3 nM for the first, 16 nM for the second.

Going from Cc1cccc(-c2nc(Nc3ccncc3C(=O)NC[C@H](O)CO)c3cccn3n2)n1 [Example 158, N-[(2S)-2,3-dihydroxypropyl]-4-{[2-(6-methylpyridin-2-yl)pyrrolo[2,1-f][1,2,4]triazin-4-yl]amino}pyridine-3-carboxamide] to O=C(NCCN1CCS(=O)(=O)CC1)c1cnccc1Nc1nc(-c2cccc(C(F)(F)F)n2)nn2cccc12 [Example 179, N-[2-(1,1-dioxo-1,4-thiomorpholin-4-yl)ethyl]-4-({2-[6-(trifluoromethyl)pyridin-2-yl]pyrrolo[2,1-f][1,2,4]triazin-4-yl}amino)pyridine-3-carboxamide], the IC50 rises from 7.9 nM to 260 nM (33-fold). The first is the more potent here.

Going from Fc1cnccc1Nc1nc(-c2ccccn2)nn2ccc(CNCC3CCNCC3)c12 [Example 238, 3-fluoro-N-(5-{[(piperidin-4-ylmethyl)amino]methyl}-2-(pyridin-2-yl)pyrrolo[2,1-f][1,2,4]triazin-4-yl)pyridin-4-amine] to COc1cccc(-c2nc(Nc3ccncc3F)c3cc(NC(=O)N4CCOCC4)cn3n2)n1 [Example 105, N-{4-[(3-fluoropyridin-4-yl)amino]-2-(6-methoxypyridin-2-yl)pyrrolo[2,1-f][1,2,4]triazin-6-yl}morpholine-4-carboxamide], the IC50 rises from 2.9 nM to 690 nM (240-fold). The first is the more potent here.
